The text below walks through data of patent US10342796B2, “Acrylanilide derivative, preparation method, and applications thereof in pharmacy” (Ancureall Pharmaceutical (Shanghai) Co., Ltd., priority 2015, dated 2019).

Read-outs that look alike come from different tables or passages of the source.

Assay in all cases: Growth inhibition GI50 in vitro (CCK8/MTT, 72 h)
The subject of assay [1] is AU565 (Her2 amp). It is filed as cell-based, human. Particulars: Homo sapiens.
The test system of assay [2] is SK-BR-3 (Her2 amp). It is filed as cell-based, human. The following applies: Homo sapiens.
Assay [3] relates to Calu-3 (Her2 amp). It is filed as cell-based. Particulars: Homo sapiens.
The test system of assay [4] is N87 (HER2 Amp). It is filed as cell-based, human. The following applies: Homo sapiens.
Assay [5] relates to H460 (EGFR wt, Kras G61H). The format is cell-based, human. Particulars: Homo sapiens, NCI-H460.
Assay [6] relates to A549 (EGFR WT). It is filed as cell-based, human. Particulars: Homo sapiens.
Assay [7] concerns A431 (EGFR WT, amplification and high expression). The format is cell-based, human. Particulars: Homo sapiens, A-431.
The subject of assay [8] is H1299 (EGFR wt, Nras Q61K). It is filed as cell-based, human. Particulars: Homo sapiens, NCI-H1299.
The subject of assay [9] is HCC827 (EGFR dE746-A750). The format is cell-based, human. Particulars: Homo sapiens.
The test system of assay [10] is H1975 (EGFR L858R/T790M). It is filed as cell-based, human. The following applies: Homo sapiens, NCI-H1975.
The test system of assay [11] is PC-9ER (EGFR delE746-A750/T790M). It is filed as cell-based, human. Particulars: Homo sapiens, PC-9/ER; EGFR mutant cell line; range of GI50; read-out: GI50 PC9ER.
For assay [12], the system named is PC-9 (EGFR dE746-A750). It is filed as cell-based, human. Particulars: Homo sapiens.
For assay [13], the system named is H292 (EGFR WT). The format is cell-based. The following applies: Homo sapiens, NCI-H292.
The mark [14] stands for this setting: AU565, HER2 positive cell line, range of GI50, read-out: GI50 AU-565.
Setting [15] is: AU565, EGFR wt, Her2 amp, read-out: GI50.
The mark [16] stands for this setting: SK-BR-3, HER2 positive cell line, range of GI50, read-out: GI50 SK-BR-3.
[17] abbreviates: SK-BR-3, EGFR wt, Her2 amp, read-out: GI50.
Where [18] appears, read: Calu-3, EGFR wt, Her2 amp, read-out: GI50.
The mark [19] stands for this setting: HER2 positive cell line, range of GI50, read-out: GI50 N87.
[20] abbreviates: N87, EGFR wt, Her2 amp, read-out: GI50.
[21] abbreviates: EGFR wild type cell line, range of GI50, read-out: GI50 H460.
[22] abbreviates: H460, EGFR wt, Kras G61H, read-out: GI50.
Setting [23] is: A549, EGFR wild type cell line, range of GI50, read-out: GI50 A549.
[24] abbreviates: A549, EGFR wt, Kras G12S, read-out: GI50.
The mark [25] stands for this setting: EGFR wild type cell line, range of GI50, read-out: GI50 A431.
The mark [26] stands for this setting: EGFR wild type cell line, range of GI50, read-out: GI50 H1299.
[27] abbreviates: H1299, EGFR wt, Nras Q61K, read-out: GI50.
Where [28] appears, read: HCC827, EGFR mutant cell line, range of GI50, read-out: GI50 HCC827.
Setting [29] is: HCC827, EGFR dE746-A750, read-out: GI50.
The mark [30] stands for this setting: EGFR mutant cell line, range of GI50, read-out: GI50 H1975.
[31] abbreviates: H1975, EGFR L858R/T790M, read-out: GI50.
Setting [32] is: EGFR mutant cell line, range of GI50, read-out: GI50 PC-9.
The mark [33] stands for this setting: PC-9, EGFR dE746-A750, read-out: GI50.
[34] abbreviates: Calu-3, Table 16, 1000 nM to 0.03 nM serial dilution, read-out: GI50 Calu3 (HER2 amp).
[35] abbreviates: Table 16, 1000 nM to 0.03 nM serial dilution, read-out: GI50 N87 (HER2 amp).
Where [36] appears, read: A549, Table 15, 1000 nM to 0.03 nM serial dilution, read-out: GI50 A549 (EGFR WT).
[37] abbreviates: Table 15, 1000 nM to 0.03 nM serial dilution, read-out: GI50 H1975 (EGFR L858R/T790M).
Where [38] appears, read: Table 15, 1000 nM to 0.03 nM serial dilution, read-out: GI50 PC-9 (EGFR dE746-A750).
Where [39] appears, read: Table 15, 1000 nM to 0.03 nM serial dilution, read-out: GI50 H292 (EGFR WT).

As for `C=CC(=O)Nc1cc(Nc2nccc(Nc3cccc(Cl)c3)n2)c(OC)cc1N(C)CCN(C)C` [Compound 2, N-(5-(4-(3-chloro-phenylamino)-pyrimidin-2-ylamino)-2-(2-(dimethylamino-ethyl)-methyl-amino)-4-methoxyl-phenyl)-acrylamide], the GI50 in assay [1] (setting [14]) is 10 to 100 nM; in assay [1] (setting [15]), 15.4 nM; in assay [2] (setting [16]), 10 to 100 nM; in assay [2] (setting [17]), 19.5 nM; in assay [3] (setting [18]) it was 31.2 nM; in assay [4] (setting [19]) it was under 10 nM. The GI50 in assay [4] (setting [20]) is 10 nM; in [5] (setting [21]), over 1000 nM; in assay [5] (setting [22]), over 1000 nM; in [6] (setting [23]), over 1000 nM; in assay [6] (setting [24]) it was over 1000 nM; in [7] (A431, EGFR wt, read-out: GI50), 156 nM. Also, the GI50 in assay [7] (setting [25]) is 100 to 1000 nM; in [8] (setting [26]) it was over 1000 nM; in assay [8] (setting [27]) it was over 1000 nM; in assay [9] (setting [28]), under 10 nM; in assay [9] (setting [29]), 2.3 nM; in assay [10] (setting [30]), 10 to 100 nM. Besides, the GI50 in [10] (setting [31]) is 14.6 nM; in assay [11], under 10 nM; in assay [12] (setting [32]), under 10 nM; in assay [12] (setting [33]), 5.4 nM; in [13] (H292, EGFR wt, read-out: GI50), over 1000 nM.

Turning to `C=CC(=O)Nc1cc(Nc2cc(Nc3cc(OC)c(Cl)cc3Cl)ncn2)c(OC)cc1N(C)CCN(C)C` [Compound 136, N-(5-(6-(2,4-dichloro-5-methoxyl-phenylamino)-pyrimidin-4-ylamino)-2-((2-dimethylamino-ethyl)-methyl-amino)-4-methoxyl-phenyl)-acrylamide], the GI50 is 10 to 100 nM in assay [1] (setting [14]); 10 to 100 nM in [2] (setting [16]); 14.7 nM in [3] (setting [34]); 10 to 100 nM in assay [4] (setting [19]); 11.2 nM in [4] (setting [35]); over 1000 nM in [5] (setting [21]). Besides, the GI50 in assay [6] (setting [23]) is over 1000 nM; in assay [6] (setting [36]), over 1000 nM; in assay [7] (setting [25]) it was 100 to 1000 nM; in assay [8] (setting [26]), over 1000 nM; in assay [9] (setting [28]) it was 10 to 100 nM; in assay [10] (setting [30]) it was 10 to 100 nM. Besides, the GI50 in assay [10] (setting [37]) was 10.1 nM; in [11], under 10 nM; in assay [12] (setting [32]), 10 to 100 nM; in assay [12] (setting [38]) it was 10.5 nM; in [13] (setting [39]), over 1000 nM.

For the compound `C=CC(=O)Nc1cc(Nc2ncc(Cl)c(Nc3ccc(OCc4ccccn4)c(Cl)c3)n2)c(OC)cc1N(C)CCN(C)C` [Compound 19, N-(5-(5-chloro-4-(3-chloro-4-(pyridin-2-methoxyl)phenylamino)-pyrimidin-2-ylamino)-2-((2-(dimethylamino)ethyl)(methyl)amino)-4-methoxyl-phenyl)-acrylamide], the GI50 in assay [1] (setting [14]) is 10 to 100 nM; in assay [1] (setting [15]), 17.5 nM; in assay [2] (setting [16]), 10 to 100 nM; in [2] (setting [17]), 39.1 nM; in [3] (setting [18]) it was 19.5 nM; in assay [4] (setting [19]) it was 10 to 100 nM. Further, the GI50 in [4] (setting [20]) is 19.5 nM; in assay [5] (setting [21]), over 1000 nM; in [5] (setting [22]) it was over 1000 nM; in [6] (setting [23]), over 1000 nM; in assay [6] (setting [24]), 978 nM; in assay [7] (A431, EGFR wt, read-out: GI50), 625 nM. Besides, the GI50 in [7] (setting [25]) is 100 to 1000 nM; in [8] (setting [26]), over 1000 nM; in [8] (setting [27]), over 1000 nM; in assay [9] (setting [28]), under 10 nM; in assay [9] (setting [29]), 6.4 nM; in [10] (setting [30]) it was under 10 nM. Besides, the GI50 in assay [10] (setting [31]) is 4.9 nM; in assay [11] it was under 10 nM; in assay [12] (setting [32]), under 10 nM; in [12] (setting [33]), 7.3 nM; in [13] (H292, EGFR wt, read-out: GI50) it was over 1000 nM.

As for `C=CC(=O)Nc1cc(Nc2nccc(-c3cn(C)c4ccccc34)n2)c(OC)cc1N(C)CCN(C)C` [AZD9291, reference compound], the GI50 in assay [1] (setting [15]) stood at 312 nM; in assay [2] (SK-BR-3) it was 643 nM; in assay [3] (setting [34]) it was 657 nM; in [3] (setting [18]) it was 686 nM; in assay [4] (setting [20]) it was 234 nM; in [4] (setting [35]), 219 nM. Further, the GI50 was over 1000 nM in assay [5] (setting [22]); over 1000 nM in [6] (setting [36]); over 1000 nM in assay [6] (setting [24]); […] in [7] (A431, EGFR wt, read-out: GI50); over 1000 nM in [8] (setting [27]); 15.6 nM in assay [9] (setting [29]). For the same compound, the GI50 is 15.6 nM in assay [10] (setting [31]); 15.6 nM in assay [10] (setting [37]); 13.9 nM in [12] (setting [33]); 13.9 nM in assay [12] (setting [38]); over 1000 nM in assay [13] (H292, EGFR wt, read-out: GI50); over 1000 nM in [13] (setting [39]).

As for `C=CC(=O)Nc1cc(Nc2ncnc(Nc3cccc(Br)c3)n2)c(OC)cc1N1CCC(N2CCCC2)CC1` [Compound 118], the GI50 was under 10 nM in assay [1] (setting [14]); 4.8 nM in assay [1] (setting [15]); 10 to 100 nM in assay [2] (setting [16]); 29.2 nM in [2] (setting [17]); 14.6 nM in [3] (setting [18]); under 10 nM in assay [4] (setting [19]). The GI50 in assay [4] (setting [20]) was 4.8 nM; in assay [7] (A431, EGFR wt, read-out: GI50) it was 156 nM; in assay [7] (setting [25]), 100 to 1000 nM; in assay [9] (setting [28]) it was under 10 nM; in assay [9] (setting [29]), 2.3 nM; in [10] (setting [30]), under 10 nM. Moreover, the GI50 in [10] (setting [31]) is 9.4 nM; in assay [11] it was under 10 nM; in assay [12] (setting [32]) it was under 10 nM; in [12] (setting [33]), 2.38 nM; in assay [13] (H292, EGFR wt, read-out: GI50), over 1000 nM.

For `C=CC(=O)Nc1cc(Nc2nccc(-n3ccc4c(OCCOC)cccc43)n2)c(OC)cc1N(C)CCN(C)C` [Compound 205, N-(5-(4-(4-(2-methoxyl-ethoxyl)-1H-indol-1-yl)-pyrimidin-2-ylamino)-2-(2-(dimethylamino-ethyl)-methyl-amino)-4-methoxyl-phenyl)-acrylamide], the GI50 was 7.88 nM in assay [3] (setting [34]); under 10 nM in [4] (Table 13, 72 h, read-out: Range of GI50 N87 (HER2 Amp)); 5.61 nM in assay [4] (setting [35]); over 1000 nM in assay [6] (A549, Table 13, 72 h, read-out: Range of GI50 A549 (EGFR WT)); over 1000 nM in [6] (setting [36]); under 10 nM in assay [10] (Table 13, 72 h, read-out: Range of GI50 H1975 (EGFR L858R/T790M)). For the same compound, the GI50 in assay [10] (setting [37]) is 4.9 nM; in [12] (Table 13, 72 h, read-out: Range of GI50 PC-9 (EGFR dE746-A750)), under 10 nM; in assay [12] (setting [38]) it was 7.81 nM; in [13] (setting [39]) it was over 1000 nM.
